Values of other authors in article PMC8999965 (Materials, 2022).

Set-up: method as in earlier work
Conditions: for EI(PCOP=0), environmental index excluding Photochemical Oxidation Potential: PCOP score excluded from summation; for EI, overall environmental index: sum of toxicity and environmental impact scores

Row | SMILES | EI(PCOP=0), environmental index excluding Photochemical Oxidation Potential | EI, overall environmental index
1 | CCN1CCOCC1 [4-ethylmorpholine] | 2.12 | 2.12
2 | O=CN1CCOCC1 [4-formylmorpholine] | 0.51 | 0.51
3 | C[S+](C)[O-] [DMSO, dimethyl sulfoxide] | 0.26 | 11.68
4 | CC(C)=O [acetone] | 0.66 | 1.27
5 | CC#N [acetonitrile] | 1.88 | 1.88
6 | C1COCCN1 [morpholine] | 2.95 | 2.95
